Experimental data as given in US20090253768A1, “THERAPEUTIC COMPOUNDS FOR DISEASES AND DISORDERS” (Myriad Genetics, Incorporated, priority 2006, published 2009).

Test system: khc/+; klc/+ Drosophila larvae
Experiment: Suppression of the flipper (tail-flipping) motor dysfunction phenotype in an animal model
Assay type: in vivo, Drosophila melanogaster
Conditions: for larvae effectively "cured" of their motor dysfunction: after accounting for penetrance
Excerpt: A stock of fruit flies (Drosophila melanogaster) was generated that is heterozygous for both KHC and KLC, which encode proteins that associate to form functional kinesin-1, also called conventional kinesin. […] A number of factors that contribute to this incomplete penetrance were identified, including the following: • 1. The flipper phenotype of a given animal appears to be suppressed by the number of larvae that precede the animal in development. That is, if a larva is among the first to develop in a vial of eggs, it is more likely to show the flipper phenotype than if it is one of the last to emerge. • 2. The flipper phenotype appears to be less robust on hard media than it is on soft media. • 3. The phenotype is diminished by physically disturbing the larvae. • 4. The clearest expression of the flipper phenotype is restricted to that phase of the 3rd instar stage of development that follows the appearance of spiracles.
Attempts to accommodate these observations were mad in order to optimize penetrance of the phenotype. Specifically: • 1. Virgin females and males were confined to a single vial for only 2 days; the flies were then transferred to fresh vials for an additional 2 days; and this process was repeated to minimize the number of larvae that would emerge in each vial. • 2. Efforts were taken to minimize handling of the larvae. • 3. Attempts were made to score the phenotype late in the 3rd instar stage of development.
In a non-blinded experiment, compound 16 (Tables 1 and 2) was tested for its ability to suppress the flipper phenotype of khc/+; klc/+ Drosophila larvae (using the animal model described in Example 7), relative to vehicle (DMSO) alone. Specifically khc/+; klc/+ Drosophila larvae were grown in the presence or absence of 0.5 mM compound 16 and scored for motor dysfunction. A total of 151 larvae were scored, 77 in the vehicle-only group and 74 in the vehicle plus compound group. […] The ratio of Flipper to Non-Flipper phenotype observed in the vehicle-only group corresponds to an 81% penetrance of the flipper phenotype in this experiment. […] Note that equivalent conclusions were obtained if, instead of scoring the number of larvae with and without motor dysfunction, the severity of the aberrant movement was analyzed.
This experiment was repeated using a blinded format and a total of 221 larvae were scored. Of the larvae in this study 104 larvae were in the vehicle-only group and 117 larvae were in the treatment group. […] The results of this second study are quite similar to those of the first study: after accounting for the differences in penetrance between the studies, compound 16 effectively “cured” 42% of the larvae of their motor dysfunction in the first experiment, and 43% of the larvae in the second experiment.

## Cc1c(-c2ccccc2)cc(-c2ccc(C(F)(F)F)cc2)n1-c1ccc(CCCC(=O)O)cc1 [Compound 16, 4-{4-[2-Methyl-3-phenyl-5-(4-trifluoromethyl-phenyl)-pyrrol-1-yl]-phenyl}-butyric acid]
Blinded repeat, 117 treated vs 104 vehicle larvae, vehicle penetrance 78%, Yates' chi-square p <1x10^-6
  reduction in flipper phenotype relative to vehicle: highly significant reduction in flipper phenotype
First (non-blinded) experiment, 0.5 mM
  larvae effectively "cured" of their motor dysfunction: 42%
non-blinded experiment, larvae grown with 0.5 mM compound, 74 treated vs 77 vehicle larvae, vehicle penetrance 81%, Fischer's test p less than 10^-4
  suppression of the Flipper phenotype relative to vehicle (DMSO): significant suppression of the Flipper phenotype
Second (blinded) experiment
  larvae effectively "cured" of their motor dysfunction: 43%
